The values below come from ChEMBL document CHEMBL1129292, “Theoretical study of inhibition of adenosine deaminase by (8R)-coformycin and (8R)-deoxycoformycin” (J Med Chem, 1996).

The target of this test is T1, Adenosine deaminase (Homo sapiens, UniProt P00813).
T1 sequence (P00813 whole entry): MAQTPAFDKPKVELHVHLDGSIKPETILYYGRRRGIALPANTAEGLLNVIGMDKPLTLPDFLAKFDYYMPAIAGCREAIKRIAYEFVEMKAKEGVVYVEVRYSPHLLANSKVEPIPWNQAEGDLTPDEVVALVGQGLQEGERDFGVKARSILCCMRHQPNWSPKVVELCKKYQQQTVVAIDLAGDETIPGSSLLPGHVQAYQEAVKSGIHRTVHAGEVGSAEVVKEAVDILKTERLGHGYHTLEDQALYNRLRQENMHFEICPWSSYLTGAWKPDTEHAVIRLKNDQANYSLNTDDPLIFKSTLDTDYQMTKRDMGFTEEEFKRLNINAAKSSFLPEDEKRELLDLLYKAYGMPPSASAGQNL
As to the kind of experiment: Binding affinity towards Adenosine deaminase.

pKi: −log10 of the molar value.

By pKi is commonly meant the negative decadic logarithm of the Ki, by convention in mol/L. Higher therefore signals a small Ki. In turn, `OCC1OC(n2cnc3c2N=CCC[C@H]3O)[C@@H](O)[C@H]1O` (single isomer, unassigned) [CONFORMYCIN] had a pKi of 11.00. The result for `OCC1OC(n2cnc3c2N=CCC[C@H]3O)C[C@H]1O` (single isomer, unassigned) reads 11.60.
